Experimental data reported in PMC6156125, “Chemistry and Hypoglycemic Activity of GPR119 Agonist ZB-16” (Frontiers in Endocrinology, 2018).
pIC50: −log10 of the molar value. Values after ≈ are worked out from the molar mass of the structure shown.

Experiments:
[1] = physchem; details: Britton-Robinson universal buffer, kinetic from dmso stock
[2] = tested on: intact fasted female Wistar rats; assay: Hypoglycemic action in intact rats after single oral administration; format: in vivo, rat; details: 0.1–1 mg/kg oral
Method: Blood glucose levels were evaluated in the peripheral blood (from the tail vein) of intact fasted (6 h) female Wistar rats using a glucometer Contour TS (Bayer, Germany) at 60, 120, and 180 min after single oral administration of each ZB-09 analogs (in doses of 0.1, 1, and 10 mg/kg). The female animals were used because of their advantages in toxicological studies shown by several authors ([23]).

[3] = biological target: T1, hERG potassium channels (Homo sapiens, UniProt Q12809); assay: Cardiac toxicity, Predictor hERG fluorescence polarization binding
T1 construct: purchased Invitrogen Corporation, Carlsbad, CA, USA
Method: Cardiac toxicity was evaluated by estimating the influence of each substance on hERG potassium channels using the in vitro test system Invitrogen® PredictorTM hERG (Invitrogen Corporation, Carlsbad, CA, USA), containing Predictor hERG membrane preparations, fluorescent tracer stock solution and an assay buffer solution. Experimental procedures were conducted in accordance with the PredictorTM hERG test system's manufacturer instructions. Assays were performed in 384-well microplates. Each well contained 5 μL aliquot of each concentration of test compound, 10 μL of (2X) membrane preparation and 5 μL of working tracer solution. The cumulative reaction volume was 20 μl with 1% of DMSO ([19]). All procedures were performed at 4 replicates for each concentration. The plate was allowed to incubate at room temperature for at least 1 h prior to fluorescence polarization measurements performed with a microplate reader Infinite M1000 PRO (Tecan).

[4] = biological target: T2, CYP1A2 (Homo sapiens, UniProt P05177); assay: CYP inhibition, Vivid CYP450 Screening Kit; format: in vitro ADME; details: 0.0046 to 10 μM tested
T2 construct: purchased Invitrogen Corporation, Carlsbad, CA, USA
T2 sequence (P05177 1-516): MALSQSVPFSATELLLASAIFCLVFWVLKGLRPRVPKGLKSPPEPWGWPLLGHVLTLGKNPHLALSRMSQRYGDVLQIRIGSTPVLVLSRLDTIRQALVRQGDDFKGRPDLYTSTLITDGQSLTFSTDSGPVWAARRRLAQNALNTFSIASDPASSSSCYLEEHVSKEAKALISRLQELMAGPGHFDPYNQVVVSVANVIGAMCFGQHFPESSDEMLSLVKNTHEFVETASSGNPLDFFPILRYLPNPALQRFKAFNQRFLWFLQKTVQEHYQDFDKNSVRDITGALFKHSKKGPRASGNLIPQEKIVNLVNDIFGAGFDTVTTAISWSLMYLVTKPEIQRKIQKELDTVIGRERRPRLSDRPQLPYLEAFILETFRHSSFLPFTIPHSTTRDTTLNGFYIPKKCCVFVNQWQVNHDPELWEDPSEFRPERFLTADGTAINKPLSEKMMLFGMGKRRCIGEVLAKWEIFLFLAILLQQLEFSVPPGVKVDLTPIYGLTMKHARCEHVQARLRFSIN
Method: Briefly, the reaction was initiated by adding NADP^+ and a substrate converted to fluorescent derivates by specific CYP isozyme. The reaction was terminated by adding 1M Tris. The fluorescence of the reaction product, which was proportional to CYP isozyme activity, was measured. […] The minimal signal was defined as the signal obtained without enzyme incubation. The inhibitory action of test compounds on the CYP isozymes was expressed in terms of median inhibitory concentration (IC50).

[5] = Biotransformation in vitro, microsomal stability (human); format: in vitro ADME
Method: The metabolism of the compounds was studied in commercially available microsomal fractions derived from human and rat hepatocytes. Test compounds (0.5 μM) were incubated with microsomal fractions in the presence of NADPH during 30 min in a shaker at 37°C. Reactions were stopped at 0, 5, 10, 15, and 30 min by adding acetonitrile. After proteins precipitation, the remaining amount of the test compound in the supernatant was detected with high performance liquid chromatography tandem-mass spectrometry (HPLC-MS/MS) method using Agilent 1260 liquid chromatograph (Agilent Technologies, Santa Clara, CA, USA) and a QTRAP6500 triple quadrupole mass spectrometer with a TurboIonSpray electro-spraying module (ABSciex, Foster City, CA, USA) ([15]). Incubation was performed twice, with at least 2 measurements for each replicate (n ≥ 3). The half-life (T1/2), the clearance in vitro (CLint) and the remaining amount of substance (% of initial quantity) were calculated.

[6] = tested on: rats with streptozotocin-nicotinamide (STZ-NA) induced T2D; assay: Hypoglycemic activity after single oral administration in T2D rat model; format: in vivo; details: single oral 1 mg/kg, fasted STZ-NA T2D rats, over a 3 h period
Method: Procedures were performed in 40 female Wistar rats weighing 250–280 g. Streptozotocin-nicotinamide-induced rat model of T2D was used ([24], [25]). Briefly, streptozotocin (Sigma, St. Louis, MO, USA) was administered i.p. to overnight fasted rats (65 mg/kg in 100 mmol/l citrate buffer, Ph 4.5). Nicotinamide (Sigma, St. Louis, MO, USA) (230 mg/kg) dissolved in saline was administered i.p. 15 min before streptozotocin. STZ-NA T2D had been confirmed 72 h after in rats with blood glucose levels in a range 9–14 mmol/l measured in fasting (6 h) conditions. […] […] For OGTT rats received an oral dose of […] glucose dissolved in saline; blood glucose levels were monitored every 30 min for 2 h after glucose administration. Sitagliptin dose was chosen in accordance with published data ([26]).

T1 sequence (Q12809 whole entry): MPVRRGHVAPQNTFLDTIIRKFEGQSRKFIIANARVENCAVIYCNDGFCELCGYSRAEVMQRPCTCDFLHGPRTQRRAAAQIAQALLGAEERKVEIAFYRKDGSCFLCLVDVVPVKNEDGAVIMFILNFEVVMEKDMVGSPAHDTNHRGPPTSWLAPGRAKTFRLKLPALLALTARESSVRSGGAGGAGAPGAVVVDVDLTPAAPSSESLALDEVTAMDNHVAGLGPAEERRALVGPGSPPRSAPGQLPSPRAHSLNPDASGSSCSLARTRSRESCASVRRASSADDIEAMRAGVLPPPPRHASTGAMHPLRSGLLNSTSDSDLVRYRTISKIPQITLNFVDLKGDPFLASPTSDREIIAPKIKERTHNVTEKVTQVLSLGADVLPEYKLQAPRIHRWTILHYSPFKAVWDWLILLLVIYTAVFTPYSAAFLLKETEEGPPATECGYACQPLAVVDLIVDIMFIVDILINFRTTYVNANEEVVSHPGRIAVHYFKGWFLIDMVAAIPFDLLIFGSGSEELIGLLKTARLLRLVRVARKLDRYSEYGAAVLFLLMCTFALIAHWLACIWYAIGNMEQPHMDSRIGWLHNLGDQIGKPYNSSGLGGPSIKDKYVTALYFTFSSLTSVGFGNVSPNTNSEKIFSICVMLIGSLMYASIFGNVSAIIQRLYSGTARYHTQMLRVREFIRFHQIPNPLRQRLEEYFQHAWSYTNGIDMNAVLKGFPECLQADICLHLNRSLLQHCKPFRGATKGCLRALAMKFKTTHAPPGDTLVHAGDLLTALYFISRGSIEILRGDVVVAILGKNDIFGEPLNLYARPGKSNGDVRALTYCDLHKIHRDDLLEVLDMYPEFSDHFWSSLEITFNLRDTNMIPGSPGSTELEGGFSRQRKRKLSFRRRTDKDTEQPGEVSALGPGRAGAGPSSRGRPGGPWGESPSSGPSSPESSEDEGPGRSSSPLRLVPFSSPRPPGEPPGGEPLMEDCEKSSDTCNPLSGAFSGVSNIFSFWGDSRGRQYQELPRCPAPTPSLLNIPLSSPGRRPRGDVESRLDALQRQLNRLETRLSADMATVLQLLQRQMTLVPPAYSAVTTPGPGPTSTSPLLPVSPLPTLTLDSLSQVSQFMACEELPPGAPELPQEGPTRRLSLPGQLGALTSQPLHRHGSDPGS

With `O=S1(=O)COc2cc(-c3ccc(OCC4CCN(c5ncc(Cl)cn5)CC4)c(F)c3)ccc21` [ZB-16] the solubility ([1]; pH 2, aqueous buffer) was 52 µM (≈ 25.5 µg/mL), the solubility ([1]; pH 4, aqueous buffer) was under 3 µM and the solubility ([1]; pH 7, aqueous buffer) was 4 µM (≈ 1.96 µg/mL). The “blood glucose levels after single oral administration” value [2] was “significant decrease”, the “Average polarization mP (n = 4)” value ([3]; 1 μM) was 264 mP and the “Unbound hERG %” value ([3]; 1 μM) was 89%. The “Average polarization mP (n = 4)” value ([3]; 10 μM) was 244 mP, the “Unbound hERG %” value ([3]; 10 μM) was 77% and the pIC50 [4] was under 5.00. For the same compound, the ER ([5]; Human microsomal fraction) was 0.76, the CLh ([5]; Human microsomal fraction, in mL/min/kg (unit assumed)) was 16.43 and the microsomal CLint at 0.5 μM ([5]; liver microsomal fraction) was 65.2 µL/min/mg. The half-life at 0.5 μM ([5]; liver microsomal fraction, 0.5 μM, NADPH, read-out: t1/2, min) was 42.5 min and the “decrease of blood glucose levels” value [6] was 24%.
